Results from patent publication US9567317B2, “Multicomponent crystalline system comprising nilotinib and selected co-crystal formers” (BASF SE, priority 2012, dated 2017).

Settings: relative humidity changed from 0 to 95% according to the measurement program (FIG. 4)

Row | water content change (water uptake) | SMILES
1 | Δm = 3.2% | Cc1cn(-c2cc(NC(=O)c3ccc(C)c(Nc4nccc(-c5cccnc5)n4)c3)cc(C(F)(F)F)c2)cn1.Cl.O [Nilotinib monohydrochloride monohydrate form B]
2 | Δm = 4.2% | Cc1cn(-c2cc(NC(=O)c3ccc(C)c(Nc4nccc(-c5cccnc5)n4)c3)cc(C(F)(F)F)c2)cn1.Cl.O.O [Nilotinib monohydrochloride dihydrate form A]
